Measured values published in patent US20230258569A1, “REAGENT FOR MEASURING SKIN SENSITIZATION, COMPOUND, AND METHOD FOR MEASURING SKIN SENSITIZATION” (FUJIFILM Corporation, priority 2020, published 2023).
Counter-ions that a name gives are not always drawn.

What was measured:
[1] = DPRA (direct peptide reactivity assay); details: in words
From the text: For example, [Gerberick, G. F., Vassallo, J. D., Bailey, R. E., Chaney, J. G., Morrall, S. W., and Lepoittevin, J. P. (2004). Development of a peptide reactivity assay for screening contact allergens. Toxicological Sciences, 81 (2), pp. 332-343] and [Gerberick, G. F., Vassallo, J. D., Foertsch, L. M., Price, B. B., Chaney, J. G., and Lepoittevin, J. P. (2007). Quantification of chemical peptide reactivity for screening contact allergens: a classification tree model approach. Toxicological Sciences, 97 (2), pp. 417-427] describe a method using two types of peptides (a cysteine peptide and a lysine peptide) as nucleophilic reagents. In addition, JP2011-59102A and JP2014-37995A describe a reagent for measuring skin sensitization and a method for measuring skin sensitization, using a cysteine derivative into which an aryl ring has been introduced and a lysine derivative into which an aryl ring has been introduced as nucleophilic reagents (also referred to as ADRA).
Natsch A. and Gfeller H. (2008). […] Quantification of chemical peptide reactivity for screening contact allergens: a classification tree model approach. […]
One type of nucleophilic reagent (Compound 1) was evaluated. In addition, the following compounds were also evaluated in the same manner as controls for comparison of the reactivity to the fifteen types of evaluation substances. • Cys peptide • Lys peptide

[2] = prediction results published in the literature; cited from earlier work
[3] = Reactivity (% depletion) of nucleophilic reagent Compound 1 with test substance, HPLC; skin sensitization prediction; details: for reactivity of Compound 1 in comparison with NAC and NAL in ADRA / reactivity of Compound 1 in comparison with NAC-amide / reactivity of Compound 1 in comparison with the cysteine peptide and the lysine peptide in DPRA / reactivity of Compound 1 in comparison with GSH-NBD: FIG. 3, FIG. 4; for reactivity of Compound 1 with the substance: in words
[4] = prediction results published in the literature; cited from earlier work; remark: listed apart in the source
[5] = in vivo; cited from earlier work
[6] = Stability of nucleophilic reagent (residual ratio, HPLC-UV); format: physicochemical
Protocol: Immediately after preparation of the reaction solution (0 hours) and after incubation of the reaction solution at 25° C. for 24 hours (24 hours), the reaction solution is measured by HPLC-UV. At this time, since the nucleophilic reagent and the oxidized form and modified form of the nucleophilic reagent can be confirmed on HPLC, the residual ratio of the nucleophilic reagent is calculated based on the following equation.
Residual ratio (%) of nucleophilic reagent=area value of nucleophilic reagent/(area value of nucleophilic reagent+area value of oxidized form of nucleophilic reagent+area value of modified form of nucleophilic reagent)×100

residual ratio of nucleophilic reagent ([6]; after 24 hours, 25° C.)	residual ratio of nucleophilic reagent ([6]; immediately after solution preparation (0 hours))	Structure (SMILES)	reactivity with the cysteine peptide in DPRA [1]	ADRA prediction [2]	reactivity of Compound 1 in comparison with NAC and NAL in ADRA [3]	reactivity of Compound 1 in comparison with NAC-amide [3]	reactivity of Compound 1 with the substance [3]	DPRA prediction [4]	Category of LLNA sensitization [5]	reactivity of Compound 1 in comparison with the cysteine peptide and the lysine peptide in DPRA [3]	reactivity of Compound 1 in comparison with GSH-NBD [3]	depletion of Compound 1 ([3]; pH 7.4)	depletion of Compound 1 ([3]; pH 8.0)
		CCCCBr [1-Bromobutane]	reactive	Negative	same level of reactivity	same level of reactivity	no reactivity						
		CCC=C1OC(=O)c2ccccc21 [3-Propylidene phthalide]			same level of reactivity	same level of reactivity		Positive	Moderate	lower reactivity			
		COc1ccc(C(C)=O)cc1 [4′-Methoxyacetophenone]		Negative	same level of reactivity	same level of reactivity		Negative	None	same level of reactivity			
		CCCCCCI [Compound 1-Iodohexane, 1-Iodohexane]	reactive	Negative	same level of reactivity	same level of reactivity	no reactivity		None				
≥ 85%	≥ 90%	NNC(=O)[C@H](CS)NC(=O)Cc1cccc2ccccc12 [Compound 1]											
		CC(C=O)Cc1ccc(C(C)C)cc1 (centres unmarked) [Cyclamen aldehyde]			higher reactivity	higher reactivity		Positive	Weak	higher reactivity	higher reactivity		
		CCOS(=O)(=O)OCC [Diethyl sulfate]						Positive					
		O=c1c(-c2ccccc2)c1-c1ccccc1 [Diphenylcyclopropenone]		Positive	higher reactivity	same level of reactivity		Positive		same level of reactivity			
		CCOC(=O)CC(=O)c1ccccc1 [Ethyl benzoylacetate]		Negative	same level of reactivity	same level of reactivity		Negative	None	same level of reactivity			
		COC(=O)C(C)=O [Methyl pyruvate]			higher reactivity	higher reactivity			Moderate	higher reactivity	higher reactivity		
		CCCCCCCCC(=O)Cl [Nonanoyl chloride]		Positive	higher reactivity	same level of reactivity			Moderate	higher reactivity	GSH-NBD showed higher reactivity		
		O=C(Oc1ccccc1)c1ccccc1 [Phenyl benzoate]			higher reactivity	same level of reactivity		Positive	Weak	lower reactivity			
		O=C(O)c1ccc2c(c1)C(=O)OC2=O [Trimellitic anhydride]		Positive	NAL showed higher reactivity than Compound 1	higher reactivity		Positive	Strong	same level of reactivity	GSH-NBD showed higher reactivity	41.0%	37.2%
		O=c1cccccc1O [Tropolone]			higher reactivity	same level of reactivity		Positive	Moderate	lower reactivity			
		CCCCCC(C=O)=Cc1ccccc1 [α-Pentyl cinnamaldehyde]			higher reactivity	higher reactivity			Weak	higher reactivity	higher reactivity		
